Source: patent US8530489B2 (Vertex Pharmaceuticals Incorporated, priority 2006, dated 2013)

How the values were obtained:
Type in all cases: biochemical
[1] = molecular target: PLK1 (Homo sapiens, UniProt P53350); assay: PLK1 Inhibition Assay I (radioactive-phosphate incorporation); settings: Ki(app); PLK1 Inhibition Assay I or II (table does not say which)
In short: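 Ki(app) values came from non-linear regression of initial rates after background subtraction, with phosphopeptide measured by phosphocellulose filter binding and scintillation counting. PLK1 at 2 nM was preincubated with compound (typically from 10 μM, 2-fold dilutions) for 10 min, then run 240 min at 25° C with 350 μM [γ-33P]ATP and 450 μM peptide substrate in HEPES pH 7.5 buffer.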

[2] = molecular target: PLK2 (Homo sapiens, UniProt Q9NYY3); assay: PLK2 Inhibition Assay (radioactive-phosphate incorporation); settings: selectivity ratio, PLK2 over PLK1
Protocol: (§1) The compounds of the present invention are evaluated as inhibitors of human PLK kinase using the following assays.
Compounds were screened for their ability to inhibit PLK2 using a radioactive-phosphate incorporation assay. Assays were carried out in a mixture of 25 mM HEPES (pH 7.5), 10 mM MgCl2, 0.1% BSA, and 2 mM DTT. Final substrate concentrations were 200 μM [γ-33P]ATP (57 mCi 33P ATP/mmol ATP, Amersham Pharmacia Biotech/Sigma Chemicals) and 300 μM peptide (KKKISDELMDATFADQEAK) [SEQ ID:3]. Assays were carried out at 25° C. in the presence of 25 nM PLK2. An assay stock buffer solution was prepared containing all of the reagents listed above, with the exception of ATP and the test compound of interest. 30 μL of the stock solution was placed in a 96 well plate followed by addition of 2 μL of DMSO stock containing serial dilutions of the test compound (typically starting from a final concentration of 10 μM with 2-fold serial dilutions) in duplicate (final DMSO concentration 5%). The plate was pre-incubated for 10 minutes at 25° C. and the reaction initiated by addition of 8 μL [γ-33P]ATP (final concentration 200 μM).
The reaction was stopped after 90 minutes by the addition of 100 μL 0.14 M phosphoric acid. A multiscreen phosphocellulose filter 96-well plate (Millipore, Cat No. MAPHN0B50) was pretreated with 100 μL 0.2M phosphoric acid prior to the addition of 125 μL of the stopped assay mixture. The plate was washed with 4×200 μL 0.2 M phosphoric acid. After drying, 100 μL Optiphase ‘SuperMix’ liquid scintillation cocktail (Perkin Elmer) was added to the well prior to scintillation counting (1450 Microbeta Liquid Scintillation Counter, Wallac).
(§2) After removing mean background values for all of the data points, Ki(app) data were calculated from non-linear regression analysis of the initial rate data using the Prism software package (GraphPad Prism version 3.0cx for Macintosh, GraphPad Software, San Diego Calif., USA).

[3] = molecular target: T1, PLK3 (S38-A340) (Homo sapiens, UniProt Q9H4B4); assay: PLK3 Inhibition Assay (radioactive-phosphate incorporation); settings: selectivity ratio, PLK3 over PLK1
T1 construct: in the presence of 5 nM PLK3 (S38-A340)
Protocol: as §1
Compounds were screened for their ability to inhibit PLK3 using a radioactive-phosphate incorporation assay. Assays were carried out in a mixture of 25 mM HEPES (pH 7.5), 10 mM MgCl2, and 1 mM DTT. Final substrate concentrations were 75 μM [γ-33P]ATP (60 mCi 33P ATP/mmol ATP, Amersham Pharmacia Biotech/Sigma Chemicals) and 10 μM peptide (SAM68 protein Δ332-443). Assays were carried out at 25° C. in the presence of 5 nM PLK3 (S38-A340). An assay stock buffer solution was prepared containing all of the reagents listed above, with the exception of ATP and the test compound of interest. 30 μL of the stock solution was placed in a 96 well plate followed by addition of 2 μL of DMSO stock containing serial dilutions of the test compound (typically starting from a final concentration of 10 μM with 2-fold serial dilutions) in duplicate (final DMSO concentration 5%). The plate was pre-incubated for 10 minutes at 25° C. and the reaction initiated by addition of 8 μL [γ-33P]ATP (final concentration 75 μM).
The reaction was stopped after 60 minutes by the addition of 100 μL 0.14M phosphoric acid. A multiscreen phosphocellulose filter 96-well plate (Millipore, Cat No. MAPHN0B50) was pretreated with 100 μL 0.2M phosphoric acid prior to the addition of 125 μL of the stopped assay mixture. The plate was washed with 4×200 μL 0.2 M phosphoric acid. After drying, 100 μL Optiphase ‘SuperMix’ liquid scintillation cocktail (Perkin Elmer) was added to the well prior to scintillation counting (1450 Microbeta Liquid Scintillation Counter, Wallac).
as §2

Sequence of PLK2 (Q9NYY3 whole entry): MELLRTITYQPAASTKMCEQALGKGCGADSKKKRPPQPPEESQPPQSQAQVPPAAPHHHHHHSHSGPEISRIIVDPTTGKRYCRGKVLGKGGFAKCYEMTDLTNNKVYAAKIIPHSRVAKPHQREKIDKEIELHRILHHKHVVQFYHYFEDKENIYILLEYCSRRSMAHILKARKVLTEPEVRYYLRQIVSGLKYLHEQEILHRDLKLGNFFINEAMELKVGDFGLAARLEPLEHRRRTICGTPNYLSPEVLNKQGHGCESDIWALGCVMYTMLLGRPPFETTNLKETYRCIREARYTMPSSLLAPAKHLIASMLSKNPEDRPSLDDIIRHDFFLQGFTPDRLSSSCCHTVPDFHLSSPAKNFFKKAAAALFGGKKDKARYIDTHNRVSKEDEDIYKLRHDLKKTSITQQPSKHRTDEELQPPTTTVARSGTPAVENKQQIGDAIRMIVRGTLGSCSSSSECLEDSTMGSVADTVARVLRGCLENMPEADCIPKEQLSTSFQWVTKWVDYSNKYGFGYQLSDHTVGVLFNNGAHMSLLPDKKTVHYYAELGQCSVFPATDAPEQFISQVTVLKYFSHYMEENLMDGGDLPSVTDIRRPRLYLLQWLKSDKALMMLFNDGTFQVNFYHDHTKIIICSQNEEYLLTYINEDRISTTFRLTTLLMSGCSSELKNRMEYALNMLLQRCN
T1 sequence (Q9H4B4 58-340 limits assumed): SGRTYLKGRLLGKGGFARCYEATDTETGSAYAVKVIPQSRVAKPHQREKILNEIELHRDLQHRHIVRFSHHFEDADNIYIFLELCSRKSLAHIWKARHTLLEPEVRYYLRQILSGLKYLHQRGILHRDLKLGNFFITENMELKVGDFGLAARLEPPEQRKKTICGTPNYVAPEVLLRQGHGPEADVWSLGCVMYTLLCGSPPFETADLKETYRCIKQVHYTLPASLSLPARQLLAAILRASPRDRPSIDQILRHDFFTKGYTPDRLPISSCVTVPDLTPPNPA
Sequence of PLK1 (P53350 whole entry): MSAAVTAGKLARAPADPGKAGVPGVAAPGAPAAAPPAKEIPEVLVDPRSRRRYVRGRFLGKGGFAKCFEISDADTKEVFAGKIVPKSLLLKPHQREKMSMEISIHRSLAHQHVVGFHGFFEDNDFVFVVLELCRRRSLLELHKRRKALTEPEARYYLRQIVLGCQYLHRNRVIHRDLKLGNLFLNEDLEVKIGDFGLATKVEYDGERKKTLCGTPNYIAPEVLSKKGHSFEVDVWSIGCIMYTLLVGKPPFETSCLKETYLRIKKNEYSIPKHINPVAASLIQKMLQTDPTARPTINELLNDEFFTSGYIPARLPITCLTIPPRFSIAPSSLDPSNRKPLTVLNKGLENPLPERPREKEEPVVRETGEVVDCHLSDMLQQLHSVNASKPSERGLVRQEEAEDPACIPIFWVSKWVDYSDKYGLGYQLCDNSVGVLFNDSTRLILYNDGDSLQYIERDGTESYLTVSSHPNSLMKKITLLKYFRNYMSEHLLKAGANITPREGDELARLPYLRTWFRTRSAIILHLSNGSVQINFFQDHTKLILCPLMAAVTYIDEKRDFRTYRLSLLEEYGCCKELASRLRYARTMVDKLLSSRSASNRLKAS

Compound | Ki [1] [nM] | Ki(PLK2)/Ki(PLK1) [2] | Ki(PLK3)/Ki(PLK1) [3]
C[C@@H](Nc1ncc(C#N)c(-c2c[nH]c3ncc(C(F)(F)F)cc23)n1)c1cnc(N[C@H]2CCN(C)C2)nc1 [Compound I-268, 2-((R)-1-(2-((S)-1-methylpyrrolidin-3-ylamino)pyrimidin-5-yl)ethylamino)-4-(5-(trifluoromethyl)-1H-pyrrolo[2,3-b]pyridin-3-yl)pyrimidine-5-carbonitrile] | < 3 | 293 | 141
CC(Nc1ncc(C#N)c(-c2c[nH]c3ncc(C(F)(F)F)cc23)n1)c1ccc(N[C@H]2CCNC2)nc1 (stereo partly drawn) [Compound I-277, 2-(1-(6-((S)-pyrrolidin-3-ylamino)pyridin-3-yl)ethylamino)-4-(5-(trifluoromethyl)-1H-pyrrolo[2,3-b]pyridin-3-yl)pyrimidine-5-carbonitrile] | < 3 | – | 39
CC(Nc1ncc(C#N)c(-c2c[nH]c3ncc(C(F)(F)F)cc23)n1)c1ccc(N2CCN(C)CC2)cc1 (stereo not shown) [Compound I-102, 2-(1-(4-(4-methylpiperazin-1-yl)phenyl)ethylamino)-4-(5-(trifluoromethyl)-1H-pyrrolo[2,3-b]pyridin-3-yl)pyrimidine-5-carbonitrile] | < 3 | 113 | 28
CC(Nc1ncc(C#N)c(-c2c[nH]c3ncc(C(F)(F)F)cc23)n1)c1ccc(N2CCNCC2)nc1 (stereo not shown) [Compound I-167, 2-(1-(6-(piperazin-1-yl)pyridin-3-yl)ethylamino)-4-(5-(trifluoromethyl)-1H-pyrrolo[2,3-b]pyridin-3-yl)pyrimidine-5-carbonitrile] | < 3 | 914 | 586
C[C@@H](Nc1ncc(C#N)c(-c2c[nH]c3ncc(C(F)(F)F)cc23)n1)c1ccc(N2CCN(C)CC2)cc1F [Compound I-149, 2-((R)-1-(2-fluoro-4-(4-methylpiperazin-1-yl)phenyl)ethylamino)-4-(5-(trifluoromethyl)-1H-pyrrolo[2,3-b]pyridin-3-yl)pyrimidine-5-carbonitrile] | < 3 | <130 | <100
C[C@H]1CN(c2ccc([C@@H](C)Nc3ncc(C#N)c(-c4c[nH]c5ncc(C(F)(F)F)cc45)n3)cn2)CCN1 [Compound I-273, 2-((R)-1-(6-((S)-3-methylpiperazin-1-yl)pyridin-3-yl)ethylamino)-4-(5-(trifluoromethyl)-1H-pyrrolo[2,3-b]pyridin-3-yl)pyrimidine-5-carbonitrile] | < 3 | 1813 | 581
C[C@H](Nc1ncc(C#N)c(-c2c[nH]c3ncc(C(F)(F)F)cc23)n1)c1ccc(N2CCN(C)CC2)nc1 [Compound I-148] | 3 to 40 | 63 | 70
C[C@@H]1CN(c2ccc([C@@H](C)Nc3ncc(C#N)c(-c4c[nH]c5ncc(C(F)(F)F)cc45)n3)cn2)CCN1 [Compound I-274, 2-((R)-1-(6-((R)-3-methylpiperazin-1-yl)pyridin-3-yl)ethylamino)-4-(5-(trifluoromethyl)-1H-pyrrolo[2,3-b]pyridin-3-yl)pyrimidine-5-carbonitrile] | < 3 | 4074 | –
CC(Nc1ncc(C#N)c(-c2c[nH]c3ncc(C(F)(F)F)cc23)n1)c1ccc(N2CCCN(C)CC2)cc1 (stereo not shown) [Compound I-126, 2-(1-(4-(4-methyl-1,4-diazepan-1-yl)phenyl)ethylamino)-4-(5-(trifluoromethyl)-1H-pyrrolo[2,3-b]pyridin-3-yl)pyrimidine-5-carbonitrile] | < 3 | 211 | 126
C[C@@H]1CN(c2ccc([C@@H](C)Nc3ncc(C#N)c(-c4c[nH]c5ncc(C(F)(F)F)cc45)n3)cn2)C[C@H](C)N1 [Compound I-276, 2-((R)-1-(6-((3S,5R)-3,5-dimethylpiperazin-1-yl)pyridin-3-yl)ethylamino)-4-(5-(trifluoromethyl)-1H-pyrrolo[2,3-b]pyridin-3-yl)pyrimidine-5-carbonitrile] | < 3 | 2952 | –
CNCCN(C)c1ccc([C@@H](C)Nc2ncc(C#N)c(-c3c[nH]c4ncc(C(F)(F)F)cc34)n2)cn1 [Compound I-275, 2-((R)-1-(6-(methyl(2-(methylamino)ethyl)amino)pyridin-3-yl)ethylamino)-4-(5-(trifluoromethyl)-1H-pyrrolo[2,3-b]pyridin-3-yl)pyrimidine-5-carbonitrile] | < 3 | 313 | 919
C[C@@H](Nc1ncc(C#N)c(-c2c[nH]c3ncc(C(F)(F)F)cc23)n1)c1ccc(N2CCN(C)CC2)nc1 (single isomer, unassigned) [Compound I-147] | < 3 | 523 | 186
CNCCNc1ccc(C(C)Nc2ncc(C#N)c(-c3c[nH]c4ncc(C(F)(F)F)cc34)n2)cn1 (stereo not shown) [Compound I-278, 2-(1-(6-(2-(methylamino)ethylamino)pyridin-3-yl)ethylamino)-4-(5-(trifluoromethyl)-1H-pyrrolo[2,3-b]pyridin-3-yl)pyrimidine-5-carbonitrile] | < 3 | 208 | 142
CC(Nc1ncc(C#N)c(-c2c[nH]c3ncc(C(F)(F)F)cc23)n1)c1ccc(N2CCCNCC2)cc1 (stereo not shown) [Compound I-131, 2-(1-(4-(1,4-diazepan-1-yl)phenyl)ethylamino)-4-(5-(trifluoromethyl)-1H-pyrrolo[2,3-b]pyridin-3-yl)pyrimidine-5-carbonitrile] | < 3 | 180 | 163
C[C@@H](Nc1ncc(C#N)c(-c2c[nH]c3ncc(C(F)(F)F)cc23)n1)c1ccc(N2CCNCC2)nc1 [Compound I-267, 2-((R)-1-(6-(piperazin-1-yl)pyridin-3-yl)ethylamino)-4-(5-(trifluoromethyl)-1H-pyrrolo[2,3-b]pyridin-3-yl)pyrimidine-5-carbonitrile] | < 3 | 1152 | –
CC(=O)N[C@H]1CC[C@H]([C@@H](C)Nc2ncc(C#N)c(-c3c[nH]c4ncc(C(F)(F)F)cc34)n2)CC1 [Compound I-208, N-((1R,4r)-4-((1R)-1-(5-cyano-4-(5-(trifluoromethyl)-1H-pyrrolo[2,3-b]pyridin-3-yl)pyrimidin-2-ylamino)ethyl)cyclohexyl)acetamide] | < 3 | – | –
C[C@@H](Nc1ncc(C#N)c(-c2c[nH]c3ncc(C(F)(F)F)cc23)n1)c1cccc(C(F)(F)F)c1 [Compound I-45, 4-(5-(trifluoromethyl)-1H-pyrrolo[2,3-b]pyridin-3-yl)-2-((R)-1-(3-(trifluoromethyl)phenyl)ethylamino)pyrimidine-5-carbonitrile] | 3 to 40 | – | –
